The results in this text go back to patent US10160785B2, “Antimicrobial peptides and their use for the treatment of topical infections” (priority 2015, dated 2018).

Data set [1] relates to Candida albicans (Olomouc) biofilm. Put plainly: C. albicans biofilm, remaining metabolic activity (XTT). It is filed as cell-based. As for the experimental part:
Candida albicans (Olomouc) was sub-cultured overnight in YPD medium (10 g yeast extract (DIFCO, USA), 20 g peptone (OXOID), 20 g glucose (Penta) dissolved in 1 L of distilled water) at constant shaking (100 RPM) at 37° C. Next day, the overnight culture was diluted 1:100 into fresh YPD medium and incubated at constant shaking (200 RPM) at 37° C. until the mid-exponential growth phase was reached. Then the cells were harvested and washed twice by centrifugation in physiological solution (5000 RPM; 5 min). Cells were suspended in sterile salt solution and their optical density was determined at 600 nm.
A final yeast suspension was prepared at a cell density of 1×10^6 CFU (corresponding to optical density of 0.17 at 600 nm) in RPMI 1640 medium with L-glutamine (BioSera), NaHCO3 (2 g/l; Penta) and 0.165 mol.l^−1 MOPS (Duchefa)—further as RPMI broth medium 1.
Biofilms were formed on commercially available sterile, polystyrene, flat-bottomed, 96-well microtiter plates (TPP, SW). Cell suspension (100 μl) was pipetted into selected wells of a microtiter plate and incubated without shaking for 2 hours at 37° C. Afterwards, the wells were washed twice with sterile PBS buffer (1.44 g Na2HPO4, 0.24 g KH2PO4, 0.2 g KCl and 8 g NaCl in 1 l distilled water, pH=7; Penta). Fresh RPMI broth medium 1 (100 μl) was added to each well and the plate was sealed with parafilm and incubated without shaking for 48 hours at 37° C.
Planktonic and non-adherent cells were removed by threefold washing of the biofilm with sterile PBS buffer (200 μl). A twofold serial dilution was used to reach required peptide concentration (in RPMI broth medium 1) in each well. Peptide concentrations range was between 0.39-200 μmol.l^−1. Plates were then sealed with parafilm and incubated for 20 hours at 37° C.
The metabolic activity of surviving Candida cells in the treated biofilm was determined by staining with XTT (2,3-Bis(2-methoxy-4-nitro-5-sulphophenyl)-2H-tetrazolium-5-carboxanilide). Stock solution of PMS (phenazine methosulfate; 7.5 g/l; SIGMA, Czech Republic) stored at −20° C. was diluted in PBS buffer 1:100. Diluted PMS was further mixed (2:25) with stock solution of XTT (0.5 g/l; Alchimica, Slovakia) dissolved in PBS/RPMI broth medium (1:1). Mixture (100 μl) of PMS and XTT was added into treated biofilm in the wells and incubated for 90 min at 37° C. Then the intensity of staining in each well was measured as absorbance at 540 nm on a Tecan Infinite M200 Pro reader (Tecan GmbH, Austria). Remaining metabolic activity of the cells in the biofilm was expressed for each well in percentage and calculated as follows:
[formula] where A is the absorbance of tested compound, ABL is the absorbance of negative control and AC is the absorbance of control untreated biofilm. The non-inoculated wells served as negative control. Inoculated wells not treated with compound served as positive control. Amphotericin B was used as control drug to ensure quality of Candida albicans. The values of remaining metabolic activity of treated biofilms are shown at Table 5.
In general terms: Tetrazolium dyes change colour on reduction, which living cells bring about.

The test system of data set [2] is P. aeruginosa (Liberec) biofilm. Nature of the data set: Bacterial biofilm, remaining metabolic activity (MTT). The data set is classed as cell-based, Pseudomonas aeruginosa. Conditions: remaining metabolic activity of biofilm, 20 h. As for the experimental part: (§1) Inoculum of S. aureus (Liberec) or P. aeruginosa (Liberec) cultivated overnight in BHI medium was diluted with fresh BHI medium containing 1% glucose to a final concentration to be ca. 10^8 CFU/ml. Then this was pipetted (100 μl) to 96-multiwell polystyrene plate which was incubated at 37° C. under rotary shaking (300 RPM) for 24 h. Medium without bacteria in the wells was used as a negative control. Supernatant from each well was drained and the biofilm formed on the bottom and on the walls of the wells was cautiously washed three times by sterile physiological solution (300 μl). The peptides tested in the concentrations of 1-128 μmol.l^−1 were prepared by twofold serial dilution of their stock solution (1 mmol.l^−1) in fresh BHI medium and then pipetted (100 μl) to the wells with formed biofilms. The biofilms covered by BHI medium without peptide were used as a positive control. The plates were then incubated for 20 h as described above. After that the liquid was drained out and wells were washed twice with sterile physiological solution.
(§2) The metabolic activity of surviving bacterial cells in the biofilm was determined by staining with MTT (3-(4,5-dimethylthiazol-2-yl)-2,5-diphenyl-2H-tetrazolium bromide) as follows: The mixture of BHI medium (100 μl) and 10 μl of the stock solution of MTT (5 mg/ml in physiological solution) was added to each well and the plate was incubated 40 min at 37° C. The liquid was drained out and the insoluble formazan crystals formed by reduction inside the biofilm were dissolved with dimethyl sulphoxide (100 μl). The intensity of staining in each well was measured as absorbance at 540 nm on a Tecan Infinite M200 Pro reader (Tecan GmbH, Austria). Remaining activity of surviving cells inside the biofilm was expressed for each well in percentage according to the following equation:
(§3) [formula] where A is the absorbance of the tested compound, ABL is the absorbance of the negative control, and AC is the absorbance of control biofilm.

A short description of a further data set: in vitro. Conditions: human. As for the experimental part:
The peptides in the concentrations 2-200 μmol.l^−1 were incubated with the suspension of human red blood cells (5% v/v) for 1 h at 37° C. in a physiological solution at a final volume of 0.2 ml. The samples were then centrifuged for 5 min at 250 g, and the absorbance of the supernatant was determined at 540 nm. Supernatants of red blood cells suspended in physiological solution and in 0.2% (v/v) TRITON X100 in physiological solution served as controls for zero hemolysis (blank) and 100% hemolysis, respectively. Hemolytic activity is expressed as the peptide concentration required for lysis of 50% of human erythrocytes in the assay (LC50).

Data set [3] has as its system S. aureus (Liberec) biofilm. Nature of the data set: Bacterial biofilm, remaining metabolic activity (MTT). The data set is classed as cell-based, Staphylococcus aureus. Conditions: remaining metabolic activity of biofilm, 20 h. As for the experimental part:
as §1, §2, §3

Setting [4] is: peptide concentration 6.25 μmol · l^−1, 20 hours.
The mark [5] stands for this setting: peptide concentration 12.5 μmol · l^−1, 20 hours.
Where [6] appears, read: peptide concentration 25 μmol · l^−1, 20 hours.
The mark [7] stands for this setting: peptide concentration 50 μmol · l^−1, 20 hours.
The mark [8] stands for this setting: peptide concentration 100 μmol · l^−1, 20 hours.
[9] abbreviates: peptide concentration 200 μmol · l^−1, 20 hours.
Setting [10] is: peptide concentration 8 μmol · l^−1.
Where [11] appears, read: peptide concentration 16 μmol · l^−1.
Setting [12] is: peptide concentration 32 μmol · l^−1.
[13] abbreviates: peptide concentration 64 μmol · l^−1.
The mark [14] stands for this setting: peptide concentration 128 μmol · l^−1.

Where a SMILES comes first, the peptide text is derived from it.

In the case of `CC[C@@H](C)[C@@H](NC(=O)CN)C(=O)N[C@H](CC(C)C)C(=O)N[C@H](CO)C(=O)N[C@H](CO)C(=O)N[C@H](CC(C)C)C(=O)N[C@H](Cc1c[nH]c2ccccc12)C(=O)N[C@H](CCCCN)C(=O)N[C@H](CCCCN)C(=O)N[C@H](CC(C)C)C(=O)N[C@H](CCCCN)C(=O)N[C@H](CCCCN)C(=O)N[C@@H](C(=O)N[C@@H](C(=O)N[C@H](C)C(=O)N[C@H](CCCCN)C(N)=O)[C@H](C)CC)[C@H](C)CC` [XIII] (HELM PEPTIDE1{G.[dI].[dL].[dS].[dS].[dL].[dW].[dK].[dK].[dL].[dK].[dK].[dI].[dI].[dA].[dK].[am]}$$$$V2.0), the “Metabolic activity of C. albicans (%)” value was 78.3% in data set [1] (setting [4]); 56.9% in data set [1] (setting [5]); 37.2% in data set [1] (setting [6]); 10.9% in data set [1] (setting [7]); 5.8% in data set [1] (setting [8]); 4.9% in data set [1] (setting [9]). For the same molecule, the “Metabolic activity (%) P. aeruginosa (Liberec)” value in data set [2] (setting [10]) is 71.2%; in data set [2] (setting [11]), 65.8%; in data set [2] (setting [12]), 61.2%; in data set [2] (setting [13]) it was 73.6%; in data set [2] (setting [14]), 23.0%. The CC50 at 1 h in “in vitro” is 191 µM. The “Metabolic activity (%) S. aureus (Liberec)” value in data set [3] (setting [10]) is 71.6%; in data set [3] (setting [11]) it was 33.8%; in data set [3] (setting [12]) it was 21.5%; in data set [3] (setting [13]) it was 20.4%; in data set [3] (setting [14]) it was 5.3%.

H-GILSSLWKKLKKIIAK-NH2 [XII]: the “Metabolic activity of C. albicans (%)” value in data set [1] (setting [4]) amounted to 86.8%; in data set [1] (setting [5]), 80.3%; in data set [1] (setting [6]), 94.8%; in data set [1] (setting [7]), 63.6%; in data set [1] (setting [8]), 6.2%; in data set [1] (setting [9]) it was 3.2%. The “Metabolic activity (%) P. aeruginosa (Liberec)” value in data set [2] (setting [10]) was found to be 77.3%; in data set [2] (setting [11]) it was 69.3%; in data set [2] (setting [12]), 66.9%; in data set [2] (setting [13]), 44.4%; in data set [2] (setting [14]) it was 57.9%. This molecule also registered a CC50 at 1 h in the data set “in vitro” of 197 µM. The “Metabolic activity (%) S. aureus (Liberec)” value is 52.2% in data set [3] (setting [10]); 31.5% in data set [3] (setting [11]); 18.9% in data set [3] (setting [12]); 14.7% in data set [3] (setting [13]); 1.0% in data set [3] (setting [14]).

Regarding H-GILSSLLKKLKKIIAK-NH2 [III], the “Metabolic activity of C. albicans (%)” value in data set [1] (setting [4]) was found to be 104.7%; in data set [1] (setting [5]) it was 113.6%; in data set [1] (setting [6]), 87.2%; in data set [1] (setting [7]) it was 31.1%; in data set [1] (setting [8]) it was 28.4%; in data set [1] (setting [9]), 0.0%. The same molecule yielded a CC50 at 1 h in the data set “in vitro” of 284 µM. In addition, the “Metabolic activity (%) S. aureus (Liberec)” value in data set [3] (setting [10]) amounted to 87.8%; in data set [3] (setting [11]) it was 89.6%; in data set [3] (setting [12]) it was 78.4%; in data set [3] (setting [13]) it was 15.9%; in data set [3] (setting [14]), 2.4%.

Consider `CN[C@H](CC(C)C)C(=O)N[C@H]1C(=O)N[C@@H](CC(N)=O)C(=O)N[C@H]2C(=O)N[C@H]3C(=O)N[C@H](C(=O)N[C@H](C(=O)O)c4cc(O)cc(O)c4-c4cc3ccc4O)[C@H](O)c3ccc(c(Cl)c3)Oc3cc2cc(c3O[C@@H]2O[C@H](CO)[C@@H](O)[C@H](O)[C@H]2O[C@H]2C[C@](C)(N)[C@H](O)[C@H](C)O2)Oc2ccc(cc2Cl)[C@H]1O` [Vancomycin, reference compound], for which the “Metabolic activity (%) S. aureus (Liberec)” value is listed as 52.8% in data set [3] (setting [10]); 15.9% in data set [3] (setting [11]); 9.7% in data set [3] (setting [12]); 8.5% in data set [3] (setting [13]); 6.3% in data set [3] (setting [14]).

On to `NCC[C@H](O)C(=O)N[C@@H]1C[C@H](N)[C@@H](O[C@H]2O[C@H](CN)[C@@H](O)[C@H](O)[C@H]2O)[C@H](O)[C@H]1O[C@H]1O[C@H](CO)[C@@H](O)[C@H](N)[C@H]1O` [Amikacin, reference compound], for which the “Metabolic activity (%) P. aeruginosa (Liberec)” value in data set [2] (setting [10]) is given as 80.0%; in data set [2] (setting [11]), 62.9%; in data set [2] (setting [12]) it was 40.4%; in data set [2] (setting [13]), 20.3%; in data set [2] (setting [14]) it was 11.8%. The “Metabolic activity (%) S. aureus (Liberec)” value in data set [3] (setting [10]) was found to be 95.4%; in data set [3] (setting [11]), 102.4%; in data set [3] (setting [12]), 108.7%; in data set [3] (setting [13]) it was 82.4%; in data set [3] (setting [14]), 104.0%.

For H-GIMSSLMKKLAAHIKK-NH2 [VIII], the HC50 at 1 h in “in vitro” is greater than 400 µM.
